According to US10556892B2, “Piperazinyl methanone NAAA inhibitors” (priority 2016, dated 2020):
In brackets after ≈: the same amount, converted by molar mass. Like-named read-outs stand apart in the source and are kept apart here.

Key:
[1] = Plasma stability; format: in vitro ADME; parameters: dose or concentration left out as unconfirmed; details: mouse plasma
[2] = target: h-AC (Homo sapiens (Human), UniProt Q13510); assay: biochemical; details: read-out: h-AC inh (%) 30 μM
[3] = In vitro metabolic stability, mouse liver microsomes; format: in vitro ADME; parameters: dose or concentration left out as unconfirmed
Method: In vitro metabolic stability. Microsomes stability experiments. In vitro incubation with mouse microsomes (NADPH and UDPG system). […] At time zero, cofactors were added. […] The mixture was kept at 37° C. under shaking. Aliquots (50 mL) were taken at various time points and crashed with 0.15 mL of CH3CN spiked with 500 nM warfarin (internal standard). Reference incubation, with microsomes but without cofactors, was kept at 37° C. and sampled at the end of the time course. After vortexing and centrifugation, 3 mL of supernatant were analyzed by LCMS/MS and detected by multiple reaction monitoring (MRM).

[4] = Aqueous kinetic solubility in PBS pH 7.4; format: physicochemical; details: pH 7.4, aqueous buffer, kinetic from dmso stock; for solubility at 24 h: PBS
[5] = Pharmacokinetics study in mice; format: in vivo, mouse; details: for Kp: brain and plasma
Method: Compounds were administered orally or intravenously to C57B6/J mice at 3 mg/kg and 3 mg/kg dose, respectively. Vehicle was PEG400/Tween80/saline solution at 15/15/70% in volume, respectively. Three animals per dose were used. […] Control animals treated with vehicle were also included in the study. Animals were sacrificed at time-points and blood and brain samples were collected. […] Brain samples were homogenized in RIPA buffer (150 mM NaCl, 1.0% Triton X-100, 0.5% sodium deoxycholate, 0.1% sodium dodecyl sulfate, 50 mM Tris, pH 8.0) and were then split in two aliquots kept at −80° C. until analysis. An aliquot was used for compound brain level evaluations, following the same procedure described below for plasma samples. The second aliquot was kept for protein content evaluation by bicinchoninic acid (BCA) assay. Samples (plasma and brain homogenate) were thawed in an ice bath, then centrifuged for 20 min and an aliquot of each (50 μL) was transferred into a 96-deepwell plate and added with 150 μl of the extraction solution, consisting of cold acetonitrile spiked with 200 nM of a structural analog of the analyte (14), closely eluting with the analyte itself, as internal standard. After agitation (3 min) the plate was centrifuged at 3000×g for 20 min at 4° C. 80 μl of supernatant was then transferred in a 96-well plate and added with 80 μL of H2O. Standard compound was spiked in net solvent (PBS pH 7.4 added with 20% CH3CN) to prepare a calibration curve over the 1 nM-10 μM range. 3 quality controls samples were also prepared spiking the compound in blank mouse plasma to final 20, 200 and 2000 nM concentrations. Calibrators and QCs were crashed with the same extraction solution used for the plasma samples. Dosing solutions, previously diluted 100000 fold in the net solvent, were also included in the samples and tested. […] Column and UPLC-MS system were purchased from Waters Inc. Milford, USA. Flow rate was set 0.5 mL/min. Eluents were A=H2O and B═CH3CN, both added with 0.1% formic acid. […] The time/concentration profiles measured with the above mentioned system were then analyzed using PK Solutions Excel application (Summit Research Service, USA) to derive the pharmacokinetic data (Maximum observed concentration (Cmax); maximum time (Tmax); cumulative area under curve (AUC) for experimental time points; distribution volume (Vd); systemic clearance (Cl)).

[6] = pH 7.4, read-out: m-LM stab. t1/2
[7] = phosphate-buffered saline (PBS), 25 °C, Table 9, read-out: Aq. Skin
[8] = 25 °C, Table 10, read-out: Aq. Kinetic Solubility
[9] = phosphate-buffered saline (PBS), 25 °C, Table 7
[10] = phosphate-buffered saline (PBS), 25 °C, Table 11, read-out: Aq. Kinetic Solubility
[11] = 3 mg/kg, CD1 mouse, iv 3 mpk, brain
[12] = 3 mg/kg, CD1 mouse, iv 3 mpk, plasma
[13] = C57B6/J, 10 mg/kg, C57 mouse, po 10 mpk, brain
[14] = C57B6/J, 10 mg/kg, C57 mouse, po 10 mpk, plasma
[15] = C57B6/J, 30 mg/kg, C57 mouse, po 30 mpk, brain
[16] = C57B6/J, 30 mg/kg, C57 mouse, po 30 mpk, plasma
[17] = phosphate-buffered saline (PBS) pH 7.4, 25 °C, Table 9, read-out: Aq. Skin
[18] = phosphate-buffered saline (PBS), 25 °C, Table 10, read-out: Aq. Kinetic Solubility

Structure (SMILES): CCCS(=O)(=O)c1ccccc1C(=O)N1CCN(c2nc3ccc(F)cc3s2)CC1 [Compound 11]
- half-life ([1]; read-out: m-plasma stab. t1/2): > 2 h
- inhibition at 30 µM [2]: 2%
- half-life [3, 6]: > 1 h

Structure (SMILES): CCCS(=O)(=O)c1ccccc1C(=O)N1CCN(c2nc3ccc(F)c(F)c3s2)C[C@@H]1C [Compound 37]
- half-life ([1]; read-out: m-plasma stab. t1/2): > 2 h
- solubility kinetic at 24 h [4, 7]: 8 µM (≈ 3.84 µg/mL)
- inhibition at 30 µM [2]: 9%
- half-life [3, 6]: > 1 h

Structure (SMILES): CCS(=O)(=O)c1ccccc1C(=O)N1CCN(c2nc3ccc(F)cc3s2)C(C)C1 (stereo not shown) [Compound 16]
- inhibition at 30 µM [2]: 25%

Structure (SMILES): O=C(c1ccccc1S(=O)(=O)C1CC1)N1CCN(c2nc3ccc(F)cc3s2)CC1 [c-propyl]
- solubility kinetic [4, 8]: 10 µM (≈ 4.46 µg/mL)

Structure (SMILES): CCCS(=O)(=O)c1ccccc1C(=O)N1CCN(c2nc3ccc(F)cc3s2)C[C@@H]1C [Compound 41, [(2S)-4-(6-fluoro-1,3-benzothiazol-2-yl)-2-methyl-piperazin-1-yl]-(2-propylsulfonylphenyl)methanone]
- solubility at 24 h [4, 9]: 76 ± 1 µM (≈ 35.1 µg/mL)

Structure (SMILES): CCS(=O)(=O)c1ccccc1C(=O)N1CCN(c2nc3c(F)cccc3s2)CC1 [Compound 8]
- half-life ([1]; read-out: m-plasma stab. t1/2): > 2 h
- half-life [3, 6]: 0.267 h

Structure (SMILES): C[C@H]1CN(c2nc3ccc(F)c(F)c3s2)CCN1C(=O)c1ccccc1S(=O)(=O)C1CC1 [Compound 38]
- half-life ([1]; read-out: m-plasma stab. t1/2): > 2 h
- solubility kinetic at 24 h [4, 7]: 14 µM (≈ 6.69 µg/mL)

Structure (SMILES): CCS(=O)(=O)c1ccccc1C(=O)N1CCN(c2nc3ccccc3s2)CC1 [H]
- solubility kinetic at 24 h [4, 10]: 196 µM (≈ 81.4 µg/mL)

Structure (SMILES): CCCS(=O)(=O)c1ccccc1C(=O)N1CCN(c2nc3ccc(F)cc3s2)CC1 [CH2CH2CH3]
- solubility kinetic [4, 8]: < 1 µM

Structure (SMILES): CCS(=O)(=O)c1ccccc1C(=O)N1CCN(c2nc3cccc(F)c3s2)CC1 [Compound 9]
- half-life ([1]; read-out: m-plasma stab. t1/2): > 2 h
- inhibition at 30 µM [2]: -3%
- half-life [3, 6]: 0.267 h

Structure (SMILES): O=C(c1ccccc1S(=O)(=O)C1CC1)N1CCN(c2nc3ccc(F)cc3s2)CC1 [Compound 22]
- half-life ([1]; read-out: m-plasma stab. t1/2): > 2 h
- inhibition at 30 µM [2]: -1%
- half-life [3, 6]: > 1 h

Structure (SMILES): CCS(=O)(=O)c1ccccc1C(=O)N1CCN(c2nc3ccc(F)c(F)c3s2)C[C@@H]1C [Compound 36]
- half-life ([1]; read-out: m-plasma stab. t1/2): > 2 h
- solubility kinetic at 24 h [4, 7]: 1 µM (≈ 0.466 µg/mL)
- half-life [3, 6]: > 1 h

Structure (SMILES): CCS(=O)(=O)c1ccccc1C(=O)N1CCN(c2nc3ccc(F)cc3s2)CC1 [Cmpd 1]
- half-life ([1]; read-out: m-plasma stab. t1/2): > 2 h
- half-life [3, 6]: > 1 h

Structure (SMILES): O=C(c1ccccc1S(=O)(=O)C1COC1)N1CCN(c2nc3ccc(F)cc3s2)CC1 [Compound 13]
- half-life ([1]; read-out: m-plasma stab. t1/2): > 2 h
- half-life [3, 6]: > 1 h

Structure (SMILES): CCS(=O)(=O)c1ccccc1C(=O)N1CCN(c2nc3ccc(F)cc3s2)C[C@@H]1C [Compound 8, (2-ethylsulfonylphenyl)-[(2S)-4-(6-fluoro-1,3-benzothiazol-2-yl)-2-methyl-piperazin-1-yl]methanone]
- Cmax [5, 11]: 1610 ng/mL
- Tmax [5, 11]: 0.0833 h
- half-life [5, 11]: 0.725 h
- AUC ([5]; 3 mg/kg, CD1 mouse, iv 3 mpk, brain, read-out: AUC): 867 ng·h/mL
- Cmax [5, 12]: 1810 ng/mL
- Tmax [5, 12]: 0.0833 h
- clearance [5, 12]: 31 mL/min/kg
- half-life [5, 12]: 0.893 h
- AUC ([5]; 3 mg/kg, CD1 mouse, iv 3 mpk, plasma, read-out: AUC): 1550 ng·h/mL
- Vd ([5]; 3 mg/kg, CD1 mouse, iv 3 mpk, plasma, read-out: Vss): 2.4 L/kg
- Cmax [5, 13]: 392 ng/mL
- Tmax [5, 13]: 0.5 h
- half-life [5, 13]: 1.22 h
- AUC ([5]; C57B6/J, 10 mg/kg, C57 mouse, po 10 mpk, brain, read-out: AUC): 1340 ng·h/mL
- Cmax [5, 14]: 1470 ng/mL
- Tmax [5, 14]: 0.5 h
- half-life [5, 14]: 1.34 h
- AUC ([5]; C57B6/J, 10 mg/kg, C57 mouse, po 10 mpk, plasma, read-out: AUC): 5340 ng·h/mL
- Cmax [5, 15]: 2240 ng/mL
- Tmax [5, 15]: 0.25 h
- half-life [5, 15]: 3.14 h
- AUC ([5]; C57B6/J, 30 mg/kg, C57 mouse, po 30 mpk, brain, read-out: AUC): 3230 ng·h/mL
- Cmax [5, 16]: 5170 ng/mL
- Tmax [5, 16]: 0.25 h
- half-life [5, 16]: 1.41 h
- AUC ([5]; C57B6/J, 30 mg/kg, C57 mouse, po 30 mpk, plasma, read-out: AUC): 46200 ng·h/mL
- Kp ([5]; C57B6/J, 10 mg/kg, C57 mouse, po 10 mpk, read-out: AUCbrain/AUCplasma): 0.251
- Kp ([5]; C57B6/J, 30 mg/kg, C57 mouse, po 30 mpk, read-out: AUCbrain/AUCplasma): 0.07
- Total AUC (AUCplasma + AUCbrain) ([5]; C57 mouse, po 10 mpk): 6683
- % distribution (AUC organ/(AUCplasma + AUCbrain)) ([5]; C57 mouse, po 10 mpk, brain): 20%
- % distribution (AUC organ/(AUCplasma + AUCbrain)) ([5]; C57 mouse, po 10 mpk, plasma): 80%
- Cl ([5]; C57 mouse, po 10 mpk, plasma): 30.429 mL/min/kg
- Vss ([5]; C57 mouse, po 10 mpk, plasma): 3.53 L/kg
- Total AUC ([5]; C57 mouse, po 30 mpk): 49447.7
- % distribution ([5]; C57 mouse, po 30 mpk, brain): 7%
- % distribution ([5]; C57 mouse, po 30 mpk, plasma): 93%
- Cl ([5]; C57 mouse, po 30 mpk, plasma): 10.817 mL/min/kg
- Vss ([5]; C57 mouse, po 30 mpk, plasma): 1.32 L/kg
- Total AUC ([5]; CD1 mouse, iv 3 mpk): 2421.5
- % distribution ([5]; CD1 mouse, iv 3 mpk, brain): 36%
- % distribution ([5]; CD1 mouse, iv 3 mpk, plasma): 64%
- Kp ([5]; 3 mg/kg, CD1 mouse, iv 3 mpk, read-out: AUCbrain/AUCplasma): 0.557

Structure (SMILES): CCS(=O)(=O)c1ccccc1C(=O)N1CCN(c2nc3ccc(C)cc3s2)CC1 [CH3]
- solubility kinetic at 24 h [4, 10]: 181 µM (≈ 77.8 µg/mL)

Structure (SMILES): CCS(=O)(=O)c1ccccc1C(=O)N1CCN(c2nc3ccc(OC)cc3s2)CC1 [OMe]
- solubility kinetic at 24 h [4, 10]: 39 µM (≈ 17.4 µg/mL)

Structure (SMILES): CCCCS(=O)(=O)c1ccccc1C(=O)N1CCN(c2nc3ccc(F)cc3s2)CC1 [CH2CH2CH2CH3]
- solubility kinetic [4, 8]: < 1 µM

Structure (SMILES): C[C@H]1CN(c2nc3ccc(F)cc3s2)CCN1C(=O)c1ccccc1S(=O)(=O)C1CC1 [Compound 42, (2-cyclopropylsulfonylphenyl)-[(2S)-4-(6-fluoro-1,3-benzothiazol-2-yl)-2-methyl-piperazin-1-yl]methanone]
- solubility at 24 h [4, 9]: 115 ± 7 µM (≈ 52.9 µg/mL)

Structure (SMILES): O=C(c1ccccc1S(=O)(=O)C1CCCC1)N1CCN(c2nc3ccc(F)cc3s2)CC1 [c-pentyl]
- solubility kinetic [4, 8]: < 1 µM

Structure (SMILES): O=C(c1ccccc1S(=O)(=O)C1CCC1)N1CCN(c2nc3ccc(F)cc3s2)CC1 [c-butyl]
- solubility kinetic [4, 8]: 5 µM (≈ 2.3 µg/mL)

Structure (SMILES): C[C@H]1CN(c2nc3ccc(F)cc3o2)CCN1C(=O)c1ccccc1S(=O)(=O)C1CC1 [Compound 27]
- half-life ([1]; read-out: m-plasma stab. t1/2): > 2 h
- solubility kinetic at 24 h [4, 17]: 124 µM (≈ 55 µg/mL)
- inhibition at 30 µM [2]: -12%

Structure (SMILES): CCS(=O)(=O)c1ccccc1C(=O)N1CCN(c2nc3ccc(F)cc3o2)C[C@@H]1C [Compound 26]
- half-life ([1]; read-out: m-plasma stab. t1/2): > 2 h
- solubility kinetic at 24 h [4, 17]: 6 µM (≈ 2.59 µg/mL)
- inhibition at 30 µM [2]: -12%
- half-life [3, 6]: > 1 h

Structure (SMILES): CCCS(=O)(=O)c1ccccc1C(=O)N1CCN(c2nc3ccc(F)cc3o2)C[C@@H]1C [Compound 28]
- half-life ([1]; read-out: m-plasma stab. t1/2): > 2 h
- solubility kinetic at 24 h [4, 17]: 45 µM (≈ 20 µg/mL)
- inhibition at 30 µM [2]: -11%

Structure (SMILES): O=C(c1ccccc1S(=O)(=O)CCCO)N1CCN(c2nc3ccc(F)cc3s2)CC1 [CH2CH2CH2OH]
- solubility kinetic [4, 8]: 49 µM (≈ 22.7 µg/mL)

Structure (SMILES): CCS(=O)(=O)c1ccccc1C(=O)N1CCN(c2nc3ccc(F)cc3s2)C[C@@H]1C [Compound 8]
- half-life ([1]; Table 5, read-out: Plasma t1/2): > 2 h
- solubility at 24 h ([4]; phosphate-buffered saline (PBS), 25 °C, Table 5): 165 µM (≈ 73.8 µg/mL)
- solubility at 24 h [4, 9]: 139 ± 1 µM (≈ 62.2 µg/mL)
- half-life ([3]; pH 7.4, NADPH, read-out: MLM (NADPH) t1/2): > 1 h
- Kp ([5]; C57B6/J, mouse, 3 mg/kg, mice, oral administration, read-out: brain-to-plasma ratio): 0.25
- Tmax ([5]; C57B6/J, mouse, plasma, oral 3 mg/kg, mice): 0.5 h
- AUC ([5]; C57B6/J, mouse, plasma, oral 3 mg/kg, mice, read-out: AUCplasma): 988 ng·h/mL
- Cmax ([5]; C57B6/J, mouse, oral 3 mg/kg, mice, plasma): 613 ng/mL

Structure (SMILES): O=C(c1ccccc1S(=O)(=O)C1COC1)N1CCN(c2nc3ccc(F)cc3s2)CC1 [oxetan-3-yl]
- solubility kinetic at 24 h [4, 18]: 22 µM (≈ 10.2 µg/mL)

Structure (SMILES): O=C(c1ccccc1S(=O)(=O)C1CCC1)N1CCN(c2nc3ccc(F)cc3s2)CC1 [Compound 12]
- half-life ([1]; read-out: m-plasma stab. t1/2): > 2 h
- inhibition at 30 µM [2]: -3%
- half-life [3, 6]: > 1 h

Structure (SMILES): CC(C)S(=O)(=O)c1ccccc1C(=O)N1CCN(c2nc3ccc(F)cc3s2)CC1 [i-Pr]
- solubility kinetic at 24 h [4, 18]: < 1 µM

Structure (SMILES): CCS(=O)(=O)c1ccccc1C(=O)N1CCN(c2nc3ccc(Cl)cc3s2)CC1 [Cl]
- solubility kinetic at 24 h [4, 10]: 2 µM (≈ 0.9 µg/mL)

Structure (SMILES): CCS(=O)(=O)c1ccccc1C(=O)N1CCN(c2nc3ccc(F)cc3s2)[C@H](C)C1 [Compound 24]
- inhibition at 30 µM [2]: 1%
